Data as given in patent US8648116B2, “Derivatives of N-(arylamino) sulfonamides including polymorphs as inhibitors of MEK as well as compositions, methods of use and methods for preparing the same” (Ardea Biosciences, Inc., priority 2005, dated 2014).

System: phosphorylated ERK in MDA-MB-231 breast cancer cells
Experiment: Generation of EC50 data: Western blotting for phosphorylated ERK in EGF-stimulated cells
Format: cell-based
Experimental: Effects of compounds in the cell were determined by Western blotting for phosphorylated ERK. MDA-MB-231 breast cancer cells were plated in a 48 well plate at 20,000 cells per well and grown in a 37° humidified CO2 incubator. The following day, the growth media (DMEM+10% fetal bovine serum) was removed and replaced with starve media (DMEM+0.1% fetal bovine serum). Cells were incubated in the starve media for sixteen hours and then treated with a range of compound concentrations for thirty minutes. After incubation with compound, cells were stimulated with 100 ng/ml EGF for five minutes. The cells were then lysed and analyzed by Western blot using a monoclonal antibody raised to phosphorylated ERK. The signal was amplified using a secondary antibody conjugated to a near-IR dye and detected on a Licor Odyssey scanner.

[1] = Homo sapiens, EC50 classes per legend (pERK, MDA-MB-231 cells), classes D and F also cite IC50

| Compound | EC50 (EC50 class) [nM] | EC50 [1] [nM] |
| --- | --- | --- |
| COc1cc(F)c(F)c(Nc2ccc(I)cc2F)c1NS(=O)(=O)C1(C[C@@H](O)CO)CC1 [Eg. 99 (R isomer), N—(R)-(3,4-difluoro-2-(2-fluoro-4-iodophenylamino)-6-methoxyphenyl)-1-(2,3-dihydroxypropyl)cyclopropane-1-sulfonamide] | 2 to 15 | – |
| O=S(=O)(Nc1ccc(F)c(F)c1Nc1ccc(I)cc1F)C1(CCO)CC1 [Example 1027] | – | < 2 |
| CC(C)S(=O)(=O)Nc1ccc(F)c(F)c1Nc1ccc(I)cc1F [Example 1002] | – | 2 to 15 |
| O=S(=O)(Nc1ccc(F)c(F)c1Nc1ccc(I)cc1F)c1ccco1 [Example 1006] | – | 15 to 100 |
